In the case of `CCCOc1c(OC)cc(Cl)c2c1CN1CCc3cc(OC)c(OCc4ccccc4)cc3C1C2` (stereo unspecified), the melting point fell in the range of 118 to 120 °C. Under `CCOC(=O)CCc1cccc(CNC(=O)C[C@H]2O[C@H](c3cccc(OC)c3OC)c3cc(Cl)ccc3N(CC(C)(C)CO)C2=O)c1` stands 94 to 95 °C; under `CCOC(=O)CCCCCOc1ccc(C(=O)Nc2ccccc2Oc2ccccc2-c2nnn[nH]2)cc1`, 140 to 141 °C. Regarding `CCCCc1ncc(C/C=C/C(N)(Cc2cccs2)C(=O)O)n1Cc1ccc(C(=O)O)cc1` (stereo unspecified), the melting point lay in the range of 223 to 224 °C. Under `CCCn1c(=O)sc2cc(F)c(-n3c(=O)cc(CC)[nH]c3=O)cc21` stands over 250 °C; under `COC(=O)c1cn2c(n1)COc1ccc(Cl)cc1-2`, 239 to 240 °C. The figure for `CCOC(=O)C(C)(C)N1COC(C)=C(I)C1=O` is 85 to 87 °C; for `COC(=O)CCc1cc(=O)n2nc(C)nc2[nH]1` it is 222 to 225 °C; for `Cn1c(CN2CC=C(/C=C/c3ccccc3)CC2)nc2ccccc21` it is 188 to 190 °C.

Turning to `CC(CCCC(C)(C)O)C1CCC2C3C=CC4=CC(=O)C=CC4(C)C3CCC12C` (stereo unspecified), the melting point lay in the range of 180 to 182 °C. The figure for `COc1cc2c(cc1OC)/C(=C/c1cc(OC)c(OC)c(OC)c1)N(C(=O)C1CCCCC1)CC2` is 162 to 164 °C; for `O=C(Nc1ccc(SCCCCCCCCCCCCC(Cl)(Cl)C(=O)O)cc1)c1ccc(Cl)cc1` it is 167 to 168 °C; for `CCOC(=O)c1cc(Cl)c(F)c(Cl)c1` it is 59.5 to 60 °C. On to `O=[N+]([O-])c1ccc(CCNCCc2ccc([N+](=O)[O-])cc2)cc1`, for which the melting point lay in the range of 86 to 91 °C. The figure for `NC(=O)c1cccc(NC(=O)Cc2cccc(Br)c2)c1` is 202 °C. Turning to `CCOC(=O)c1cnc2n(c1=O)-c1ccccc1N(C(C)=O)C2`, the melting point lay in the range of 152 to 155 °C. Compound `Cc1nc(N2CCN(CC(=O)NCc3ccc(F)cc3)C2=O)sc1C(=O)NCc1ccccc1` came in with a melting point of 232 to 234 °C. Under `CCOC(=O)Cn1c(=O)[nH]c2ccc(C(=O)c3c(-c4ccccc4)c(OC)c4ccccn34)cc2c1=O` stands 221 °C. In turn, `O=C(O)c1ccccc1C(=O)NCCN1CCN(CCOC(c2ccccc2)c2ccccc2)CC1` yielded a melting point of 45 °C. Under `O=C1Nc2ccc(Cl)cc2SC1c1ccc(Cl)cc1` (stereo unspecified) stands 230 to 234 °C; under `Fc1ccc(OCCCCCCN2CCN(c3nccs3)CC2)cc1`, 58 to 60 °C.

In turn, `CC(=O)OC1CSC(Oc2ccc(-c3ccncc3)nc2)C(OC(C)=O)C1OC(C)=O` (stereo unspecified) gave a melting point of 189 °C.

For `COc1ccc(CNc2nc(NCCCc3cccc(C(C)=O)c3)nc3ncccc23)cc1OC`, the melting point is 152 to 155 °C. The figure for `NCC1Cc2cc(C(F)(F)F)cc(-c3ccc(F)cc3)c2O1` (stereo unspecified) is over 250 °C; for `CCCNC(=O)[C@H]1CN(c2ccc(N3CCOCC3)c(F)c2)C(=O)O1` it is 165 to 167 °C; for `Cc1nc(N2CCCC(=Cc3cccnc3)C2=O)sc1C(=O)NCc1ccccc1` it is 206 to 208 °C. Regarding `Cc1ccc(-c2ccc3c(c2)C=C(C=O)CCO3)cc1`, the melting point lay in the range of 132 to 133 °C. `Cc1cccc(-c2nc3c(C)cccn3c2-c2ccnc(-c3ccc(CN4CCOCC4)cc3)c2)n1` had a melting point of 122 °C. Turning to `CCn1c(=O)oc2cc([N+](=O)[O-])ccc21`, the melting point was 133 to 135 °C. The compound `CN1CCC(C2c3ccccc3CCc3cccnc32)CC1` (stereo unspecified) registered a melting point of 111 to 114 °C.

`CCCc1c(OCCCCCOc2ccccc2/C=C/C(=O)O)ccc2c1OCCC2=O` returned a melting point of 123 to 126 °C. `CN1C(C)(C)CC(O)(CN2C(=O)C3(COc4cc5c(cc43)OCO5)c3ccccc32)CC1(C)C` (stereo unspecified) gave a melting point of 210 to 214 °C. Under `COc1cc(C(=O)O)ccc1Cn1ccc2ccc(NC(=O)CC3CCCC3)cc21` stands 259 to 260 °C; under `O=C(NS(=O)(=O)c1ccccc1)c1ccc(I)cc1`, 192 to 193 °C; under `O=C1C(=CO)CSc2ccc(Cl)cc21`, 103 to 104 °C.

In the case of `CN(SN1CCOCC1)C(=O)Oc1cccc2c1OC(C)(C)C2`, the melting point lay in the range of 75 to 78 °C.

Compound `CON=C(c1ccccc1)c1ccc2c(c1)NC(=O)CO2` gave a melting point of 147 to 149 °C. `CCN(CC)CCCNc1ncc2cc(-c3c(Cl)cccc3Cl)c(=N)n(C)c2n1` returned a melting point of 154 to 156 °C. The compound `CC(C)(C)c1ccc2c(c1)C(=O)NC2` showed a melting point of 142 to 144 °C. Under `Cn1c(=O)c(S(C)(=O)=O)c(O)c2ccccc21` stands 169 to 172 °C; under `CN1C(=O)C(NC(=O)Nc2cccc(C#N)c2)C(=O)N(c2ccccc2)c2ccccc21` (stereo unspecified), over 250 °C; under `CCCCOc1ccc(C(=O)c2cccc(C(=O)O)c2)c(OC)c1`, 144 to 145 °C. The figure for `CCON=C(CC)C1=C(O)CC(c2ccc(Sc3ccc(S(C)(=O)=O)cn3)cc2)CC1=O` (stereo unspecified) is 126 to 128 °C; for `CC(=O)OC1CSC(Oc2ccnc(-c3ccc(F)nc3)c2)C(OC(C)=O)C1OC(C)=O` (stereo unspecified) it is 151 °C; for `Cc1nn(C(=O)NC(C)(C)CCc2ccccc2)c(=O)n1N` it is 87 °C.

`CCOC(=O)c1cn(C2CC2)c2nc3cc(N4CCNC(c5ccc(OC)cc5)C4)c(F)cc3cc2c1=O` (racemic) came in with a melting point of 199 °C. Take `Cn1nc(-c2cccc(Br)c2)cc1C(=O)O`: the melting point is 166 to 169 °C. In the case of `CC(=O)Nc1cc2c(cc1[N+](=O)[O-])OC(C)(C)[C@@H](O)[C@@H]2NC(C)=O` (relative stereo), the melting point was in the range of 244 to 246 °C. In turn, `O=C(O)c1cc(Cl)c(OCc2ccc(Cl)cc2)c(Cl)c1` yielded a melting point of 215 to 220 °C. `CC(C)(C)NC(=O)[C@@H]1CCCN1C(=O)[C@@H](O)[C@H](Cc1ccccc1)NC(=O)[C@H](CC(N)=O)NCc1ccccc1` yielded a melting point of 96 to 99 °C. Under `CC(C)CN1CC(O)C(O)C(O)C1CO` (stereo unspecified) stands 192 to 194 °C; under `COc1ccc(-n2c(=O)n(OCc3ccccc3)c(=O)c3cc(F)c(F)cc32)cc1`, 211 to 212 °C; under `O=C(CCCl)N1Cc2cccc3[nH]cc(c23)C1`, 158 to 161 °C. The figure for `COc1cc(C(C)(C)O)c(O)c2c1C(C)(C)CCC2(C)C` is 140 °C; for `CC(C)(C)OC(=O)Nc1ccc(-c2ccc(F)cc2)cc1NC(=O)CC(=O)c1sccc1C#N` it is 156 to 157 °C.

`CCOC(=O)c1c2ccc(Cl)cc2c(-c2ccccc2)n1CCOS(C)(=O)=O` returned a melting point of 125 to 127 °C. `COc1ccc(CC(=O)c2ccc(F)cc2)cc1`: the melting point lay in the range of 107 to 109 °C. Under `CCCc1cc(=O)oc2c3c(c4c(c12)OC(C)(C)C=C4)OC(C)C(C)C3O` (single isomer, unassigned; (-)) stands 52 to 54 °C. Under `CC1(C)CC(=O)c2c(C3CCC3)sc(C#N)c2C1` stands 65 to 68 °C. With `Cc1ccc(N)cc1/C=C/c1nc(C(C)C)cs1`, the melting point was 60 to 61 °C.

In turn, `CCCCCOc1ccc(C2SC(=O)NC2=O)cc1OCC` (stereo unspecified) showed a melting point of 104 to 106 °C. Under `CN(C)C(=O)Sc1ccc(C(=O)c2ccc([N+](=O)[O-])cc2)cc1` stands 198 to 199 °C; under `CC(COS(C)(=O)=O)N1c2ccc(Cl)cc2Sc2ccc(C#N)cc21` (racemic), 132 °C; under `CN(C)c1ccc(C=Nn2ccnc2CCc2ccccc2)cc1`, 153 to 154 °C. Under `CN1CCc2c(Cl)ccc3c4c(n(c23)CC1)CCCCC4` stands 132 to 134 °C; under `COc1cc(C=CC=C2SC(=O)NC2=O)cc(OC)c1OCc1ccccc1`, 217 to 218 °C; under `CC(=O)Oc1ccc(CCCC2CC(=O)OC(=O)C2)cc1`, 55 to 57 °C. Compound `Cc1ccc(CC2CCN(C(=O)CNc3ccc(NS(C)(=O)=O)cc3)CC2)cc1` returned a melting point of 133 to 135 °C.

Compound `CC(C)(C)c1ccc(CCC(=O)N2C(=O)OC[C@@H]2Cc2ccccc2)cc1` returned a melting point of 123 to 126 °C. Under `CCOC(=O)c1cn(CCF)c2nc(N3CCN(C(C)=O)CC3)c(F)cc2c1=O` stands 183 to 185 °C.

For `CCCCCC(CCn1ccnc1)Sc1ccc(C(C)(C)C)cc1` (stereo unspecified), the melting point fell in the range of 192 to 193 °C. Under `CSc1cc(Cl)cc(C(=O)O)c1` stands 148 to 150 °C; under `Cc1cc(=O)[nH]nc1-c1ccc(-c2ccc(F)cc2)cc1`, 245 to 247 °C; under `CCCCOc1cc(OCCCC)c(C(=O)O)c(C(F)(F)F)n1`, 90 to 93.5 °C. Under `CC(C)(C)OC(=O)NCCN1CC2CN(Cc3ccccc3)CC(C1)O2` stands 58 to 60 °C; under `COC(=O)C[C@H](O)C[C@H](O)CCc1c(-c2ccc(F)cc2)c(-c2ccc(F)cc2)c(C(=O)Nc2ccc(S(N)(=O)=O)cc2)n1C(C)C`, 106 to 108 °C. In turn, `Cc1cc(C=C2SC(=S)NC2=O)cc2c1OCC(=O)N2Cc1ccc(CN2CCCCC2)cc1` returned a melting point of 277 to 278 °C. The figure for `CCCCc1nnc(-c2ccco2)n1Cc1ccc([N+](=O)[O-])cc1` is 91 to 92.5 °C; for `N#CCOc1ccc2cc(-c3cc4ccccc4s3)ccc2c1Br` it is 179 to 181 °C.

`O=C1c2cc3ccccc3cc2C(=O)c2c(Oc3ccccc3)cccc21`: the melting point lay in the range of 195 to 200 °C. Under `COC(=O)NC(=O)Nc1nc2ccccc2s1` stands 338 to 340 °C; under `O=C(O)CCc1cn(Cc2ccc(OCCn3ncc4ccccc4c3=O)cc2)nc1-c1ccccc1`, 155 to 156 °C.

On to `COCCOc1ccc(/C=C/C(=O)NS(=O)(=O)c2cccnc2)c(Oc2ncc(C(F)(F)F)cc2Cl)c1`, for which the melting point lay within 165 to 167 °C. Under `Cc1c(C)c(N2C(=O)c3ccccc3C2=O)c(C)c2c1OC(C)(C)C2c1ccc(F)cc1` (stereo unspecified) stands 209 to 211 °C; under `CC(C)COc1ccc2c(c1)N(C)C(=O)N(c1ccc(Cl)cc1)S2(=O)=O`, 108 to 110 °C; under `CCOC(=O)C(NS(=O)(=O)c1ccc(C)cc1)C1CCOC1C#N` (stereo unspecified), 105 to 107 °C.

As usually defined, the melting point is the temperature, or range, at which the solid turns liquid.

These data come from a melting point compilation (Tetko et al.; mined from patent text by program, amines drawn as free bases though some values may be those of a salt).
